Results reported in publication PMC2918268 (Biochemical pharmacology, 2010).

Assays:
Assay in all cases: cell-free TR-FRET co-activator peptide displacement
Assay type in all cases: binding
Conditions in all cases: read-out: EC50
[1] = target: T1, estrogen-related receptor α (ERRα) (Homo sapiens, UniProt P11474)
T1 sequence (P11474 193-423 limits assumed): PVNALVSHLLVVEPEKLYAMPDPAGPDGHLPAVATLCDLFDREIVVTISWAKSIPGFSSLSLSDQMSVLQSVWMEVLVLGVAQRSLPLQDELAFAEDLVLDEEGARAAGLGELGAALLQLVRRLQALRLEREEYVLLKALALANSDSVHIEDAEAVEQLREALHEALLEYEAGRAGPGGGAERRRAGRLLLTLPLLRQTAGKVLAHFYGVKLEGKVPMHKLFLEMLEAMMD

ERα = target: T2, ERα (Homo sapiens, UniProt P03372)
T2 sequence (P03372 311-547 limits assumed): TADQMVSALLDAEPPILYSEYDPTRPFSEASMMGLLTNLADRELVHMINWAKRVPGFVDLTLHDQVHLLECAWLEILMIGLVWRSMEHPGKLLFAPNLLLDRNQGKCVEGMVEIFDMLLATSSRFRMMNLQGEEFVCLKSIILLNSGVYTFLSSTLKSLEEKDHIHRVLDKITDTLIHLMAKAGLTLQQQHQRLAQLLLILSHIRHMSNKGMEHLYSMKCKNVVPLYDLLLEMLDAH

ERβ = ERβ (Homo sapiens, UniProt Q92731)
Sequence of ERβ (Q92731 264-498 limits assumed): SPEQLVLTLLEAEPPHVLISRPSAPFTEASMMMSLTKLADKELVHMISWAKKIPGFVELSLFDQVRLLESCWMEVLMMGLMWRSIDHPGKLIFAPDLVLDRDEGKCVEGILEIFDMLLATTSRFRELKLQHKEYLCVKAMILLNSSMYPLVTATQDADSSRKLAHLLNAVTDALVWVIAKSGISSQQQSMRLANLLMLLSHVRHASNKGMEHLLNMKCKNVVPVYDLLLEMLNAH

C[C@@H]1Cc2cc(O)ccc2[C@H]2CC[C@]3(C)/C(=C/COCCN(C)C)CC[C@H]3[C@H]12 [SR16388, 21-[2-(N,N-dimethylamino)ethyl]oxy-7a-methyl-19-norpregna-1,3,5(10),17(20)-tetraen-3-ol] showed an IC50 [1] of 0.7 ± 0.1 µM, an IC50 (ERα) of 0.2 ± 0.2 µM and an IC50 (ERβ) of 0.5 ± 0.2 µM.
